In patent US8445246B2, “Flavin-binding glucose dehydrogenases” (Kikkoman Corporation, priority 2009, dated 2013):

How the values were obtained:
[1] = system: MpGDH; assay: Inhibiting effect of 1,10-phenanthroline on MpGDH; assay type: biochemical, Mucor prainii NISL0103
From the text: (§1) The inhibiting effect of […] on the activity of the flavin-binding GDH of the invention was examined in the following manner.

[2] = system: MjGDH; assay: Inhibiting effect of 1,10-phenanthroline on MjGDH; assay type: biochemical, Mucor javanicus NISL0111
From the text: as §1

[3] = system: McGDH; assay: Inhibiting effect of 1,10-phenanthroline on McGDH; assay type: biochemical, Mucor circinelloides f. circinelloides NISL0117
From the text: as §1

[4] = system: flavin-binding GDH of the invention; assay: Inhibiting effect of 1,10-phenanthroline; assay type: biochemical
From the text: as §1

inhibiting effect ([4]; 1 mM 1,10-phenanthroline): 2-4% | inhibition rate ([4]; 5 mM 1,10-phenanthroline): about 10%
SMILES: c1cnc2c(c1)ccc1cccnc12 [1,10-phenanthroline]
GDH inhibition rate (%) ([1]; 1,10-phenanthroline 1 mM): 3.72% | GDH inhibition rate (%) ([1]; 1,10-phenanthroline 5 mM): 10.1% | GDH inhibition rate (%) ([1]; 1,10-phenanthroline 10 mM): 23.9% | GDH inhibition rate (%) ([1]; 1,10-phenanthroline 25 mM): 44.1% | GDH inhibition rate (%) ([1]; 1,10-phenanthroline 50 mM): 68.6% | GDH inhibition rate (%) ([2]; 1,10-phenanthroline 1 mM): 3.27% | GDH inhibition rate (%) ([2]; 1,10-phenanthroline 5 mM): 13.1% | GDH inhibition rate (%) ([2]; 1,10-phenanthroline 10 mM): 23.5% | GDH inhibition rate (%) ([2]; 1,10-phenanthroline 25 mM): 64.7% | GDH inhibition rate (%) ([2]; 1,10-phenanthroline 50 mM): 88.9% | GDH inhibition rate (%) ([3]; 1,10-phenanthroline 1 mM): 1.95% | GDH inhibition rate (%) ([3]; 1,10-phenanthroline 5 mM): 8.23% | GDH inhibition rate (%) ([3]; 1,10-phenanthroline 10 mM): 12.8% | GDH inhibition rate (%) ([3]; 1,10-phenanthroline 25 mM): 36.2% | GDH inhibition rate (%) ([3]; 1,10-phenanthroline 50 mM): 68.5%
